Reference: patent US9427415B2, “Methods and compositions for modifying sensorial perception” (The Procter & Gamble Company, priority 2014, dated 2016)
Like-named read-outs stand apart in the source and are kept apart here.

Tests used:
human TRPV1 = target: T1, human TRPV1 (Homo sapiens, UniProt Q8NER1, M315I/T336M); test: Intracellular calcium (Fluo-4, FLIPR) activation of TRPV1 cells by GRAS compounds; assay type: cell-based; settings: relative to capsaicin 350 nM; for activation at 1000 µM / V1 activation, % of agonist value: 1 mM;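 on all read-outs here: TRPV1-expressing cells, FLIPR fluorescence at 488/514 nm with baseline subtracted, sampled every 2 s for 10 min after adding compound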
T1 construct: expressed in transfected cells; pcDNA3 control cells
T1 sequence (Q8NER1 whole entry M315I/T336M): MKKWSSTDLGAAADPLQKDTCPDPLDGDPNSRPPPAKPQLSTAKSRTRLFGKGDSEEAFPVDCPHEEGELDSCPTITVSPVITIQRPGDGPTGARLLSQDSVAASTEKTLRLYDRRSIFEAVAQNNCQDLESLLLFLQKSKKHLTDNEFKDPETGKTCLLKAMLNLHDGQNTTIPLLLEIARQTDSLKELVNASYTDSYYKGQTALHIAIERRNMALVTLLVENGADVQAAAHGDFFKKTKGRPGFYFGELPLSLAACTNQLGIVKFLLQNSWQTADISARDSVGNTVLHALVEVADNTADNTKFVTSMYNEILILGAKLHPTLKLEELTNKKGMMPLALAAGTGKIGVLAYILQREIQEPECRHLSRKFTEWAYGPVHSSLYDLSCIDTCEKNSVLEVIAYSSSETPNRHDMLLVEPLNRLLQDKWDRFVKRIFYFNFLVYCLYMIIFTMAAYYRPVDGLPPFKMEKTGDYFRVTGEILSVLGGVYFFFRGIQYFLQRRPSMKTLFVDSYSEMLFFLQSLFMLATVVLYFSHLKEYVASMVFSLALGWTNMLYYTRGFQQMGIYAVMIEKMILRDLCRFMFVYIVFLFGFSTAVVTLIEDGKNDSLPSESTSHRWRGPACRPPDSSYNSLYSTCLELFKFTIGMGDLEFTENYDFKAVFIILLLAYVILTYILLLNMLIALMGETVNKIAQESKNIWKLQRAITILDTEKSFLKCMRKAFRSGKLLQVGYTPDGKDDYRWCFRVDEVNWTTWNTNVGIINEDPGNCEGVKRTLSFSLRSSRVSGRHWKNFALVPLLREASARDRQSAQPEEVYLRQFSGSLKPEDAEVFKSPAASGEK

TRPA1V1 = test: Intracellular calcium (Fluo-4, FLIPR) activation of TRPA1V1 cells (co-expressing TRPA1 and TRPV1) by GRAS compounds; assay type: cell-based, human;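 further: HEK293 cells co-expressing TRPA1 and TRPV1, fluorescence read at 488/514 nm after baseline subtraction, recorded every 2 s over 10 min, ionomycin 10 µM and buffer as controls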
Protocol: TRPV1, TRPA1, TRPA1V1 and pcDNA3 cells were grown in 15 mL growth medium [high glucose DMEM (Dulbecco's modification of Eagle's medium) supplemented with 10% FBS (fetal bovine serum), 100 μg/mL penicillin/streptomycin, 100 μg/mL G418] in a 75 cm^2 flask for 3 days in a mammalian cell culture incubator at 33° C. and 5% CO2. TRP Cells were detached with 8 mL of PBS (without calcium or magnesium); for pcDNA3 cells, trypsin was used for releasing the cells. The detached cells were spun at low speed (800-900 rpm for 3 min) to pellet the cells. […] The cells were washed once with 45 mL assay buffer (1×HBSS, 20 mM HEPES) by low speed centrifugation (800-900 rpm for 3 min) and resuspended in 11 mL of the assay buffer in a reagent reservoir. […] The plates were set at room temperature for 30 min. The plates were read in a FLIPR^TETRA instrument (Molecular Devices, Sunnyvale, Calif.) at λex 488 nm and λem 514 nm to record baseline fluorescence following which 20 μL of test material at 1 mM or 100 μM final concentration for pure compounds in a GRAS library or 0.004% for extracts. For agonists, capsaicin 350 nM and AITC at 30 μM; and for controls, ionomycin 10 μM and buffer alone) was added to each well using the dispenser provided in the FLIPR. The data point was recorded every 2 seconds for a total of 10 min.
Average value for activation from three independent assay plates are presented as % of agonist value (AITC, 30 μM for TRPA1 and capsaicin, 350 nM for TRPV1. For TRPA1V1, we used AITC, 30 μM or capsaicin, 350 nM depending on if the compound is an A1 agonist or a V1 agonist. For compounds that activated both A1 and V1, we used AITC for normalization). Variation among triplicates was within 10% of each other. Assayed at 1 mM for pure compounds and 0.004% for extracts.

human TRPA1 = target: T2, human TRPA1 (Homo sapiens, UniProt O75762, K186N/R3C/R58T); test: Intracellular calcium (Fluo-4, FLIPR) activation of TRPA1 cells by GRAS compounds; assay type: cell-based; settings: 1 mM, relative to AITC 30 μM; for activation at 1000 µM: read-out: A1 activation, % of agonist value;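 on all read-outs here: TRPA1-expressing cells, fluorescence read on a FLIPR Tetra (ex 488 nm, em 514 nm) every 2 s for 10 min after compound addition, baseline subtracted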
T2 construct: expressed in transfected cells; pcDNA3 control cells
T2 sequence (O75762 whole entry R3C/R58T/K186N): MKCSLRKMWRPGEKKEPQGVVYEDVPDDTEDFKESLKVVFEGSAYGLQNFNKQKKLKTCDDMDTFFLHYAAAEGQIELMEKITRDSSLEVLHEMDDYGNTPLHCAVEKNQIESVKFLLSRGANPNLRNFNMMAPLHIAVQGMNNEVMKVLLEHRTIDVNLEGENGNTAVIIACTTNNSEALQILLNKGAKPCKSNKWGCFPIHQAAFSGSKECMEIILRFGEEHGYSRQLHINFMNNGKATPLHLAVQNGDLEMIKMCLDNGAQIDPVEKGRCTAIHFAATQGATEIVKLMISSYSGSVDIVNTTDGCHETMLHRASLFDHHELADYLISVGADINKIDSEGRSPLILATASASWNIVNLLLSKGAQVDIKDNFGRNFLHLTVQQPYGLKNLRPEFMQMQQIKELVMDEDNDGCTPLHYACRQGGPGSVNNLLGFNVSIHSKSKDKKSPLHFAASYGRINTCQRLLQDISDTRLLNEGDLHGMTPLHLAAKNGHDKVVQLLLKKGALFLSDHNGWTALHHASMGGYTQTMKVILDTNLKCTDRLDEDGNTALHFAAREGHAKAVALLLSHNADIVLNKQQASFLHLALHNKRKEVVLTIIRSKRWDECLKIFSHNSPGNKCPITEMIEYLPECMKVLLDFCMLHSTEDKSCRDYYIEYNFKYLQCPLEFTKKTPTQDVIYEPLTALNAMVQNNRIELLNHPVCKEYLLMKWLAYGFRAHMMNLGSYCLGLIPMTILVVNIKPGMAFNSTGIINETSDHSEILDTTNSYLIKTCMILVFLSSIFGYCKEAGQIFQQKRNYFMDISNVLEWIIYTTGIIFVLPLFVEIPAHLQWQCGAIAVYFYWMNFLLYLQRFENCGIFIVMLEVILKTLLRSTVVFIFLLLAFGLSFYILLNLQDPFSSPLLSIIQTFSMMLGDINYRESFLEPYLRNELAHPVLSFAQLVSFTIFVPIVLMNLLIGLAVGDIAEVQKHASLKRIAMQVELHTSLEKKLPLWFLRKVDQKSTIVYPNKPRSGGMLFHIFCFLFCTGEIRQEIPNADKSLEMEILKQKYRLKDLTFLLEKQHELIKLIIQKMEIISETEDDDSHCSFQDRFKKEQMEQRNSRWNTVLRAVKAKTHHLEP

[1] = Table 1(g), read-out: V1 activation, % of agonist value
[2] = Table 1(g), 1 mM, relative to capsaicin 350 nM
[3] = Table 1(h), read-out: V1 activation, % of agonist value
[4] = Table 1(h), 1 mM, relative to capsaicin 350 nM
[5] = Table 1(f), 1 mM, relative to capsaicin 350 nM
[6] = Table 1(f), read-out: V1 activation, % of agonist value
[7] = Table 1(c), 1 mM, relative to AITC 30 μM
[8] = Table 1(d), 1 mM, relative to AITC 30 μM

Structure (SMILES): CC1SCCS1 [1,3-Dithiolane, 2-methyl-]
- activation at 1000 µM (human TRPV1; [1]): 66.2%
- A1V1 activation, % of agonist value (TRPA1V1; [2]): 119.9%

Structure (SMILES): C=CCSCC=C [1-Propene, 3,3′-thiobis-]
- activation at 1000 µM (human TRPV1; [1]): 47.3%
- A1V1 activation, % of agonist value (TRPA1V1; [2]): 108.4%

Structure (SMILES): CCCCCCCC=CC=CC=O [2,4-Dodecadienal]
- activation at 100 µM (human TRPV1; Table 1(h), 100 μM (marked *), read-out: V1 activation, % of agonist value): 199%
- A1V1 activation, % of agonist value (TRPA1V1; Table 1(h), 100 μM (marked *), relative to capsaicin 350 nM): 53.5%

Structure (SMILES): Cc1ccc(C)c(O)c1 [2,5-Dimethylphenol]
- activation at 1000 µM (human TRPV1; [3]): 81.2%
- A1V1 activation, % of agonist value (TRPA1V1; [4]): 34.2%

Structure (SMILES): Cc1cccc(C)c1O [2,6-Dimethylphenol]
- activation at 1000 µM (human TRPV1; [3]): 72.1%
- A1V1 activation, % of agonist value (TRPA1V1; [4]): 45.8%

Structure (SMILES): O=CC(=Cc1ccco1)c1ccccc1 [2-Furanacrolein, alpha-phenyl-]
- V1 activation, % of agonist value (human TRPV1; Table 1(f)): 55.7%
- A1V1 activation, % of agonist value (TRPA1V1; [5]): 66.2%

Structure (SMILES): CC(C)c1ccccc1O [2-Isopropylphenol]
- activation at 1000 µM (human TRPV1; [3]): 108%
- A1V1 activation, % of agonist value (TRPA1V1; [4]): 83.5%

Structure (SMILES): Cc1ccc(C(C)CC=O)o1 (centres unmarked) [3-(5-Methyl-2-furyl)butanal]
- activation at 1000 µM (human TRPV1; [6]): 103%
- A1V1 activation, % of agonist value (TRPA1V1; [5]): 91.6%

Structure (SMILES): CC(=O)c1cc(C)sc1C [3-Acetyl-2,5-dimethylthiophene]
- activation at 1000 µM (human TRPV1; [6]): 95.1%
- A1V1 activation, % of agonist value (TRPA1V1; [5]): 84.9%

Structure (SMILES): CCCCCCCC1CC(C)OC1=O (centres unmarked) [3-Heptyldihydro-5-methylfuran-2(3H)-one]
- activation at 1000 µM (human TRPV1; [6]): 45.5%
- A1V1 activation, % of agonist value (TRPA1V1; [5]): 40.5%

Structure (SMILES): CCC(C)(O)CCc1ccccc1 (centres unmarked) [3-Methyl-1-phenyl-3-pentanol]
- activation at 1000 µM (human TRPV1; [3]): 100%
- A1V1 activation, % of agonist value (TRPA1V1; [4]): 70.5%

Structure (SMILES): CC(=O)CCc1ccc(OC(C)=O)cc1 [4-(p-Acetoxyphenyl)-2-butanone]
- activation at 1000 µM (human TRPV1; [1]): 58.9%
- A1V1 activation, % of agonist value (TRPA1V1; [2]): 91.8%

Structure (SMILES): CCCCCCC1CCC(=O)O1 (centres unmarked) [4-Decanolide]
- activation at 1000 µM (human TRPV1; [6]): 40.9%
- A1V1 activation, % of agonist value (TRPA1V1; [5]): 35.8%

Structure (SMILES): CCc1ccc(C=O)cc1 [4-Ethylbenzaldehyde]
- activation at 1000 µM (human TRPV1; [1]): 56.3%
- A1V1 activation, % of agonist value (TRPA1V1; [2]): 120.3%

Structure (SMILES): CC(=O)c1ccc(C)cc1 [4′-Methylacetophenone]
- activation at 1000 µM (human TRPV1; [1]): 55%
- A1V1 activation, % of agonist value (TRPA1V1; [2]): 136.6%

Structure (SMILES): Cc1ccc(C=O)s1 [5-Methyl-2-thiophenecarboxaldehyde]
- activation at 1000 µM (human TRPV1; [1]): 58.9%
- A1V1 activation, % of agonist value (TRPA1V1; [2]): 111.4%

Structure (SMILES): CCCCCc1cccc(=O)o1 [6-Pentyl-alpha-pyrone]
- V1 activation, % of agonist value (human TRPV1; Table 1(g)): 66.1%
- A1V1 activation, % of agonist value (TRPA1V1; [2]): 95.2%

Structure (SMILES): CC1(C)[C@@H](O[C@H]2O[C@H](C(=O)O)[C@@H](O)[C@H](O)[C@H]2O[C@@H]2O[C@H](C(=O)O)[C@@H](O)[C@H](O)[C@H]2O)CC[C@]2(C)[C@H]3C(=O)C=C4[C@@H]5C[C@@](C)(C(=O)O)CC[C@]5(C)CC[C@@]4(C)[C@]3(C)CC[C@@H]12 [18beta-Glycyrrhizinic acid]
- V1 activation, % of agonist value (human TRPV1; Table 1(g)): 100.9%
- A1V1 activation, % of agonist value (TRPA1V1; [2]): 162.7%

Structure (SMILES): COC(=O)c1ccc(O)cc1 [Methylparaben]
- activation at 1000 µM (human TRPA1; Table 1(c)): 62%
- A1V1 activation, % of agonist value (TRPA1V1; [7]): 66.33%

Structure (SMILES): COC(=O)c1ccccc1N(C)C [N,N-Dimethylanthranilic acid methyl ester]
- activation at 1000 µM (human TRPA1; Table 1(c)): 74.2%
- A1V1 activation, % of agonist value (TRPA1V1; [7]): 77.15%

Structure (SMILES): CCCCCCCCCO [Nonyl alcohol]
- activation at 1000 µM (human TRPA1; Table 1(c)): 71.1%
- A1V1 activation, % of agonist value (TRPA1V1; [7]): 69.4%

Structure (SMILES): COc1ccccc1C=CC=O [O-Methoxycinnamaldehyde]
- A1 activation, % of agonist value (human TRPA1; Table 1(c)): 65.3%
- A1V1 activation, % of agonist value (TRPA1V1; [7]): 55.99%

Structure (SMILES): CC(=O)OCc1ccccc1C [O-Methylbenzyl acetate]
- A1 activation, % of agonist value (human TRPA1; Table 1(c)): 87.22%
- A1V1 activation, % of agonist value (TRPA1V1; [7]): 77.24%

Structure (SMILES): Cc1ccccc1OC(=O)C(C)C [O-Tolyl isobutyrate]
- A1 activation, % of agonist value (human TRPA1; Table 1(c)): 49.37%
- A1V1 activation, % of agonist value (TRPA1V1; [7]): 57.76%

Structure (SMILES): CCCCCCCCOC(=O)c1ccco1 [Octyl 2-furoate]
- activation at 1000 µM (human TRPA1; Table 1(d)): 54.3%
- A1V1 activation, % of agonist value (TRPA1V1; [8]): 40.60%

Structure (SMILES): S=C=NCCc1ccccc1 [Phenethyl isothiocyanate]
- activation at 1000 µM (human TRPA1; Table 1(c)): 92%
- A1V1 activation, % of agonist value (TRPA1V1; [7]): 81.46%

Structure (SMILES): CC(C)C(=O)OCCOc1ccccc1 [Phenoxyethyl isobutyrate]
- activation at 1000 µM (human TRPA1; Table 1(d)): 81%
- A1V1 activation, % of agonist value (TRPA1V1; [8]): 53.9%

Structure (SMILES): CCC(=O)OCCOc1ccccc1 [Phenoxyethyl propionate]
- activation at 1000 µM (human TRPA1; Table 1(c)): 65.5%
- A1V1 activation, % of agonist value (TRPA1V1; [7]): 79.34%

Structure (SMILES): CSCCCN=C=S [Propane, 1-isothiocyanato-3-(methylthio)-]
- activation at 1000 µM (human TRPA1; Table 1(e)): 81.6%
- A1V1 activation, % of agonist value (TRPA1V1; Table 1(e), 1 mM, relative to AITC 30 μM): 114.6%

Structure (SMILES): CCCOC(=O)c1ccccc1 [Propyl benzoate]
- activation at 1000 µM (human TRPA1; Table 1(d)): 40.7%
- A1V1 activation, % of agonist value (TRPA1V1; [8]): 25.7%

Structure (SMILES): CC1=C(/C=C/C(C)=C/C=C/C(C)=C/CO)C(C)(C)CCC1 [Retinol]
- activation at 1000 µM (human TRPA1; Table 1(c)): 80%
- A1V1 activation, % of agonist value (TRPA1V1; [7]): 67.79%
